Reference: US8901142B2, “Fused tricyclic compounds as mTOR inhibitors” (Merck Sharp & Dohme Corp., priority 2011, dated 2014)

What was measured:
[1] = system: mTORC1 (p4E-BP1 Thr37/46) in PC3 cells; experiment: mTOR target engagement assay, immunofluorescent cell-based, mTORC1 activity by reduction of p4E-BP1 Thr37/46; conditions: Homo sapiens, PC-3, ninety minutes at 37° C., immunofluorescence
Method: (§1) The target engagement of mTOR kinase inhibitors was evaluated using an immunofluorescent cell-based assay. In this assay, inhibition of mTORC1 activity was measured by the reduction in the level of phosphorylated 4E-BP1Thr37/46 (p4E-BP1 Thr37/46), and inhibition of mTORC2 activity was measured by the reduction of phosphorylated AKTSer473 (pAKT S473).
(§2) PC3 cells (prostate tumor cell-line that contains a mutation in the tumor suppressor PTEN, that promotes the phosphorylation and activation of AKT and 4E-BP 1) were used in the immunofluorescence assay. PC3 cells were seeded on 384 well plates (black clear bottom, Matrix #4332) overnight. PC3 cells were then treated with 40 μl of the serially diluted test compounds (in 5% fetal bovine serum, F12 medium containing 0.25% DMSO) for ninety minutes at 37° C. The test compound solution was removed, and the plates were washed gently two times with 25 μl phosphate buffered saline (PBS). The cells were fixed by adding 25 μl of Prefer reagent (from Anatech LTD, Cat#414, a glyoxal fixative for fixing proteins within a cell) for sixty minutes followed by three washes with PBS. 5% Goat serum in PBS/0.3% Triton was used to block non-specific binding (60 minutes).
(§3) The primary antibodies targeting pAKT S473 and p4E-BP1 Thr37/46 were diluted into PBS/0.3% Triton and incubated with the cells overnight at 4° C. The antibodies targeting pAKTS473 (Cat#4085, Cell signaling) and p4E-BP1 Thr37/46 (Cat#2855, Cell signaling) were used at a 1:100 dilution. Plates were washed three times with PBS/0.1% Tween 20 before adding the secondary antibody at a 1:200 dilution. (goat anti-rabbit containing a fluorescent label, Alexa Fluor 488, Cat# A11008, Invitrogen) in PBS/0.3% Triton for 60 minutes.
(§4) Finally, the plates were washed three times with PBS/0.1% Tween 20 and the fluorescent intensity was read using an Analyst HT from Molecular Devices. The fluorescent intensity values from the serially diluted compound treatment group were analyzed using the Xlfit 4 program ([…]) (Formula 205: Y=Bottom+(Top-Bottom)/(1+(IC50/X)^Hillslope) to generate the IC50 value. Where Top is the maximum signal without Compound (+DMSO only) and Bottom represents maximum inhibition. Y is the fluorescence at some compound concentration. The control used to determine the fluorescent intensities for 100% pAKT S473 or 100% phosphorylated p4E-BP1 Thr37/46 were measured from untreated wells that contained only DMSO, instead of test compound.

[2] = system: mTORC2 (pAKT S473) in PC3 cells; experiment: mTOR target engagement assay, immunofluorescent cell-based, mTORC2 activity by reduction of pAKT S473; conditions: Homo sapiens, PC-3, ninety minutes at 37° C., immunofluorescence
Method: as §1, §2, §3, §4

| SMILES | IC50 [1] | IC50 [2] |
| --- | --- | --- |
| Cc1n[nH]c2c1c([C@@H]1C[C@H]3CC[C@@H](C1)N3C(=O)c1nnc[nH]1)nc1c(-c3ccc(-c4ccccc4)nc3)cnn12 [Example 1, ((1R,3s,5S)-3-(3-methyl-6-(6-phenylpyridin-3-yl)-1H-dipyrazolo[1,5-a:4′,3′-e]pyrimidin-4-yl)-8-azabicyclo[3.2.1]octan-8-yl)(4H-1,2,4-triazol-3-yl)methanone] | 100 to 1000 nM | 1 to 100 nM |
| O=C(c1nnc[nH]1)N1[C@@H]2CC[C@H]1C[C@H](c1nc3c(-c4ccc(-c5ccccc5)nc4)cnn3c3[nH]ccc13)C2 [Example 2, ((1R,3s,5S)-3-(3-(6-phenylpyridin-3-yl)-8H-pyrazolo[1,5-a]pyrrolo[3,2-e]pyrimidin-5-yl)-8-azabicyclo[3.2.1]octan-8-yl)(4H-1,2,4-triazol-3-yl)methanone] | 1 to 100 nM | 1 to 100 nM |
| CC(C)(O)c1ccc(-c2cnn3c2nc([C@@H]2C[C@H]4CC[C@@H](C2)N4C(=O)c2nnc[nH]2)c2cc[nH]c23)cn1 [Example 3, ((1R,3s,5S)-3-(3-(6-(2-hydroxypropan-2-yl)pyridin-3-yl)-8H-pyrazolo[1,5-a]pyrrolo[3,2-e]pyrimidin-5-yl)-8-azabicyclo[3.2.1]octan-8-yl)(1H-1,2,4-triazol-3-yl)methanone] | 100 to 1000 nM | 100 to 1000 nM |
| CC(C)(O)c1ccc(-c2cnn3c2nc([C@@H]2C[C@H]4CC[C@@H](C2)N4C(=O)CO)c2cc[nH]c23)cn1 [Example 4, 2-hydroxy-1-((1R,3s,5S)-3-(3-(6-(2-hydroxypropan-2-yl)pyridin-3-yl)-8H-pyrazolo[1,5-a]pyrrolo[3,2-e]pyrimidin-5-yl)-8-azabicyclo[3.2.1]octan-8-yl)ethanone] | 100 to 1000 nM | 1000 to 2000 nM |
| O=C(CO)N1[C@@H]2CC[C@H]1C[C@H](c1nc3c(-c4ccc(-c5ncc[nH]5)nc4)cnn3c3[nH]ccc13)C2 [Example 5, 1-((1R,3s,5S)-3-(3-(6-(1H-imidazol-2-yl)pyridin-3-yl)-8H-pyrazolo[1,5-a]pyrrolo[3,2-e]pyrimidin-5-yl)-8-azabicyclo[3.2.1]octan-8-yl)-2-hydroxyethanone] | 100 to 1000 nM | 1 to 100 nM |
| O=C(c1nnc[nH]1)N1[C@@H]2CC[C@H]1C[C@H](c1nc3c(-c4ccc(-c5ncc[nH]5)nc4)cnn3c3[nH]ccc13)C2 [Example 6, ((1R,3s,5S)-3-(3-(6-(1H-imidazol-2-yl)pyridin-3-yl)-8H-pyrazolo[1,5-a]pyrrolo[3,2-e]pyrimidin-5-yl)-8-azabicyclo[3.2.1]octan-8-yl)(4H-1,2,4-triazol-3-yl)methanone] | 1 to 100 nM | 1 to 100 nM |
